Reference: article PMC9404946, “Antioxidant Capacities and Enzymatic Inhibitory Effects of Different Solvent Fractions and Major Flavones from Celery Seeds Produced in Different Geographic Areas in China” (Antioxidants, 2022)
Marks after values point to notes of the source that are not given here.

Tests used:
[1] = target: T1, porcine pancreatic α-amylase (Sus scrofa, UniProt P00690); assay: α-Amylase inhibitory activity (starch-iodine); assay type: biochemical
T1 construct: purchased Shanghai Yuanye Biotechnology Co. (Shanghai, China)
T1 sequence (P00690 16-511): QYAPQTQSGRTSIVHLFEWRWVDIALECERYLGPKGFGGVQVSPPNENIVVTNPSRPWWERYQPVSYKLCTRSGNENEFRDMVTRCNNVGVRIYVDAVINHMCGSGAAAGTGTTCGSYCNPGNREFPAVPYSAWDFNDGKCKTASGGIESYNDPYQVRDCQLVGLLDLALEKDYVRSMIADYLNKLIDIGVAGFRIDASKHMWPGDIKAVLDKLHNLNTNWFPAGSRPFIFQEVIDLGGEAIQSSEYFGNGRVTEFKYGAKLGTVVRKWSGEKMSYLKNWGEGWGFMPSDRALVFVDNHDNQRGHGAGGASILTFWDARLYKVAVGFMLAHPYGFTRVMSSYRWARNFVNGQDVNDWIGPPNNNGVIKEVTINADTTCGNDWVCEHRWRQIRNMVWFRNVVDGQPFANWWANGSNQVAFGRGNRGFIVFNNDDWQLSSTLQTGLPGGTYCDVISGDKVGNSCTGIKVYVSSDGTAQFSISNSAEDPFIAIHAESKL
Description: (§1) Butylated hydroxytoluene (BHT) and ethylene diamine tetraacetic acid (EDTA) were purchased from Sigma-Aldrich (Shanghai, China). […] Methanol (MeOH), ethanol (EtOH), and dichloromethane (DCM) were purchased from Tianjin Fuyu (Tianjin, China). Ammonium acetate (NH4Ac), iodine (I2), potassium iodide (KI), soluble-starch, acetic acid (AcOH), n-butanol (nBuOH), and silica sand were obtained from Guoyao (Shanghai, China). The products were purified by flash column chromatography on 200–300 mesh silica gel purchased from Xinnuo Huagong (Yantai, Shandong, China). Methanol and acetonitrile of the high-performance liquid chromatography (HPLC) grade were purchased from Thermo Fisher Scientific (Waltham, MA, USA). DMSO-D6 was purchased from J&K (Beijing, China).

[2] = ABTS radical scavenging assay; assay type: biochemical
Method: The ABTS radical scavenging activity of each fraction was measured based on the method with slight modifications. A 28 mM ABTS and a 9.6 mM potassium persulfate working solution were prepared, mixed in equal volumes, and the mixture was left to stand for 16 h at room temperature, protected from light. The working solution was diluted with EtOH to reach an absorbance of 0.70 ± 0.02 at 740 nm and used for further experiments. Different extracts or compounds (20 μL) concentrations were mixed with the working solution (180 μL). The mixture was incubated at room temperature for 15 min, and the absorbance was recorded at 734 nm (As). DMSO and ABTS reagents in the same volume were mixed to measure the absorbance as the control (A0). Then, the antioxidant activity of the mixture was determined by calculating the decrease using the following formula:ABTS radical inhibiting activity (%) = (A0 − As)/A0 × 100, where A0 is the absorbance of the control (untreated group), and As is the absorbance of the test sample. BHT and VC were used as the positive control.

[3] = Metal chelating activity on ferrous ions (ferrozine); assay type: biochemical; details: for Metal Chelating: main flavonoids (Table 5)
Method: The iron-chelating activity of each fraction was estimated by the method described by Sapatinha et al. with modifications. Briefly, 50 μL of each sample solution and 50 μL of 1 mM FeCl2 were mixed. Then, the reaction was initiated by adding 100 μL of 2.5 mM ferrozine solution. The mixture was kept at room temperature for 10 min. The absorbance of the resulting solution was measured at 562 nm. The results are expressed as milligrams of ethylenediaminetetraacetic acid (EDTA) equivalent per gram of extract (mg EDTAE/g extract) (calibration curve from different concentrations: 0–55 μg/mL; Absorbance: y = −0.0477x + 3.0616, R² = 0.9966, Figure S2K).

[4] = DPPH radical scavenging assay; assay type: biochemical; details: main flavonoids and positive controls (Table 5)
Method: The scavenging ability of the free radical DPPH was investigated as described with slight modification. The sample solution (100 μL) and DPPH reagent (0.11 mg/mL, 100 μL) were mixed and incubated (30 min) at room temperature and in darkness. Then, a multi-detection microplate reader was used to measure the absorbance at 517 nm (As). The control group was mixed with DMSO and DPPH reagent in the same volume (A0). A formula was used to calculate the DPPH radical scavenging activity:DPPH radical scavenging activity (%) = [(A0 − As)/A0] × 100, where A0 is the absorbance of the control (untreated group), and As is the absorbance of the test sample. BHT and VC were used as the positive control.

[5] = Ferric reducing antioxidant power (FRAP); assay type: biochemical
Method: The measurement of FRAP was based on previous studies with slight modifications. A total of 180 uL of FRAP working solution (acetate buffer (pH 3.6): ferric chloride solution (20 mM): TPTZ solution (10 mM) = 10:1:1) was mixed with 20 μL of sample solution and incubated for 30 min at room temperature. The absorbance was measured at 593 nm. The standard curve was linear from 0 to 30 μg Trolox with an R^2 value of 0.9999 (Absorbance: y = 0.0943x + 0.0126, Figure S2I). The results are expressed as milligrams of TE/g dry weight.

[6] = target: Saccharomyces cerevisiae α-glucosidase; assay: α-Glucosidase inhibitory activity assay (PNPG substrate); assay type: biochemical; details: main flavonoids and acarbose (Table 5)
Description: as §1
The α-glucosidase inhibition test was performed as previously described with some variations. PBS (0.1 M, pH = 6.8), α-glucosidase (5 U/mL), and PNPG (5 mM) were prepared and stored at 4 °C for further use. In total, 20 μL of different concentration sample solution (DMSO dissolved) or DMSO, 60 μL of PBS, and 20 μL of α-Glucosidase (0.5 U/mL) were added to a 96-well plate and incubated for 20 min at 37 °C. Then, 20 μL of PNPG (5 mM) solution was added and incubated for another 15 min at 37 °C. Subsequently, 80 μL of Na2CO3 (0.1 M) solution was added to terminate the reaction. […] Inhibition (%) was calculated based on absorbance with the following formula: Inhibitor (%) = (A0 − As)/A0 × 100%, where A0 is the absorbance of the blank group, and As is the absorbance of the test group. The IC50 values were calculated using GraphPad Prism 8.0 (GraphPad Software, Inc., La Jolla, CA, USA) to evaluate the α-glucosidase inhibition activity of the tested compounds.

[7] = Cupric reducing antioxidant capacity (CUPRAC); assay type: biochemical; details: main flavonoids (Table 5)
Method: The cupric ion reducing antioxidant capacity (CUPRAC) was measured according to the method of Drouet et al. with modifications. Briefly, 50 μL of the extract sample was mixed with 150 μL of the CUPRAC solution (composed of 10 mM CuCl2, 7.5 mM neocuproine, and 1 M NH4Ac buffer pH 7; ratio 1:1:1 (v/v/v)). After incubation for 15 min at room temperature, the absorbance value at 450 nm of the reaction mixture was measured. The results were reported as […] of Trolox equivalents (TE) per gram of extract (mg TE/g extract) (calibration curve from different concentrations: 0–70 μg/mL; Absorbance: y = 0.0279x + 0.0126, R² = 0.9997, Figure S2J).

α-amylase = target: α-amylase; parameters: method as in PMID 32344340; details: previously reported; cited from earlier work
[8] = main flavonoids and positive controls (Table 5)
[9] = main flavonoids and positive control (Table 5)
[10] = solvent fractions and positive controls (Table 3 and text)
[11] = solvent fractions and positive control, Trolox equivalent

O=c1cc(-c2ccc(O)cc2)oc2cc(O[C@@H]3O[C@H](CO)[C@@H](O)[C@H](O)[C@H]3O)cc(O)c12 [Apigenin-7-O-Glucoside]
IC50 [1]: 1740 ± 40 µM
ABTS IC50 [2, 8]: 461.00 ± 11.04 ^b μg/mL
Metal Chelating [3]: 5.69 ± 0.19 ^h mg EDTAE/g
DPPH IC50 [4]: 4885.33 ± 56.01 ^b μM
FRAP [5, 9]: 25.90 ± 0.49 ^i mg TE/g
IC50 [6]: 77.5 ± 4.84 µM
CUPRAC [7]: 33.45 ± 0.51 ^g mg TE/g

O=c1cc(-c2ccc(O)cc2)oc2cc(O)cc(O)c12 [Apigenin]
ABTS IC50 [2, 8]: 223.63 ± 10.35 ^c μg/mL
Fe2+ chelating capacity [3]: 54.20 mg EDTA/g
Metal Chelating [3]: 54.20 ± 1.28 ^c mg EDTAE/g
DPPH IC50 [4]: 1292.00 ± 31.00 ^d μM
FRAP [5, 9]: 59.41 ± 0.24 ^h mg TE/g
IC50 [6]: 80 ± 0.85 µM
CUPRAC [7]: 76.44 ± 1.83 ^f mg TE/g

O=c1cc(-c2ccc(O)cc2)oc2cc(O[C@@H]3O[C@H](CO)[C@@H](O)[C@H](O)[C@H]3O[C@@H]3OC[C@](O)(CO)[C@H]3O)cc(O)c12 [Apiin]
ABTS IC50 [2, 8]: 1055.33 ± 24.68 ^a μg/mL
Metal Chelating [3]: 17.15 ± 1.37 ^f mg EDTAE/g
DPPH IC50 [4]: 7686.33 ± 200.18 ^a μM
FRAP [5, 9]: 5.97 ± 1.49 ^j mg TE/g
IC50 [6]: 199 ± 14.9 µM
α-amylase inhibitory activity IC50 (α-amylase): 1084 µg/mL
CUPRAC [7]: 25.26 ± 0.18 ^g mg TE/g

Cc1cc(C(C)(C)C)c(O)c(C(C)(C)C)c1 [BHT, Butylated hydroxytoluene, reference compound]
ABTS IC50 [2, 8]: 5.72 ± 0.10 ^h,i μg/mL
ABTS IC50 [2, 10]: 3.79 ± 0.04 ^l μg/mL
DPPH IC50 [4]: 39.13 ± 0.93 ^g μM
FRAP [5, 9]: 406.39 ± 4.65 ^d mg TE/g
FRAP [5, 11]: 406.39 mg TE/g

COc1cc(-c2cc(=O)c3c(O)cc(O[C@@H]4O[C@H](CO)[C@@H](O)[C@H](O)[C@H]4O)cc3o2)ccc1O [Chrysoeriol-7-O-glucosid]
IC50 [1]: 1860 ± 20 µM
ABTS IC50 [2, 8]: 46.64 ± 1.24 ^d μg/mL
Metal Chelating [3]: 8.22 ± 0.84 ^g mg EDTAE/g
DPPH IC50 [4]: 848.23 ± 143.61 ^e μM
FRAP [5, 9]: 203.35 ± 6.33 ^f mg TE/g
IC50 [6]: 39.8 ± 1.05 µM
CUPRAC [7]: 495.51 ± 6.64 ^d mg TE/g

COc1cc(-c2cc(=O)c3c(O)cc(O)cc3o2)ccc1O [Chrysoeriol]
ABTS IC50 [2, 8]: 16.69 ± 0.55 ^f μg/mL
Fe2+ chelating capacity [3]: 36.49 mg EDTA/g
Metal Chelating [3]: 36.49 ± 0.22 ^d mg EDTAE/g
DPPH IC50 [4]: 580.10 ± 35.54 ^f μM
FRAP [5, 9]: 337.96 ± 0.88 ^e mg TE/g
CUPRAC [7]: 947.43 ± 5.72 ^b mg TE/g

O=c1cc(-c2ccc(O)c(O)c2)oc2cc(OC3OC(CO)C(O)C(O)C3OC3OCC(O)(CO)C3O)cc(O)c12 (stereo not drawn) [Graveobioside A]
ABTS IC50 [2, 8]: 6.88 ± 0.05 ^h μg/mL
Metal Chelating [3]: 89.98 ± 0.42 ^a mg EDTAE/g
DPPH IC50 [4]: 12.47 ± 0.08 ^h μM
FRAP [5, 9]: 882.04 ± 0.43 ^b mg TE/g
IC50 [6]: 104 ± 5.75 µM
CUPRAC [7]: 887.17 ± 8.95 ^c mg TE/g

COc1cc(-c2cc(=O)c3c(O)cc(OC4OC(CO)C(O)C(O)C4OC4OCC(O)(CO)C4O)cc3o2)ccc1O (stereo not drawn) [Graveobioside B]
ABTS IC50 [2, 8]: 29.43 ± 1.33 ^e μg/mL
Metal Chelating [3]: 21.32 ± 1.51 ^e mg EDTAE/g
DPPH IC50 [4]: 3266.33 ± 365.08 ^c μM
FRAP [5, 9]: 166.87 ± 2.97 ^g mg TE/g
IC50 [6]: 104 ± 1.85 µM
CUPRAC [7]: 328.10 ± 14.10 ^e mg TE/g

O=c1cc(-c2ccc(O)c(O)c2)oc2cc(O[C@@H]3O[C@H](CO)[C@@H](O)[C@H](O)[C@H]3O)cc(O)c12 [Luteolin-7-O-glucoside]
ABTS IC50 [2, 8]: 9.41 ± 0.42 ^g μg/mL
Metal Chelating [3]: 8.51 ± 0.21 ^g mg EDTAE/g
DPPH IC50 [4]: 9.28 ± 0.06 ^i μM
FRAP [5, 9]: 830.71 ± 8.52 ^c mg TE/g
IC50 [6]: 49.9 ± 2.85 µM
CUPRAC [7]: 955.05 ± 3.64 ^b mg TE/g

O=c1cc(-c2ccc(O)c(O)c2)oc2cc(O)cc(O)c12 [Luteolin]
IC50 [1]: 2110 ± 10 µM
ABTS IC50 [2, 8]: 4.58 ± 0.02 ^i,j μg/mL
Fe2+ chelating capacity [3]: 88.44 mg EDTA/g
Metal Chelating [3]: 88.44 ±0.64 ^b mg EDTAE/g
DPPH IC50 [4]: 4.65 ± 0.16 ^j μM
FRAP [5, 9]: 1025.12 ± 10.78 ^a mg TE/g
IC50 [6]: 58.8 ± 2.97 µM
CUPRAC [7]: 1502.63 ± 15.92 ^a mg TE/g

O=C1O[C@H]([C@@H](O)CO)C(O)=C1O [VC, ascorbic acid, reference compound]
ABTS IC50 [2, 8]: 3.79 ± 0.04 ^j μg/mL
ABTS IC50 [2, 10]: 5.72 ± 0.10 ^l μg/mL
DPPH IC50 [4]: 5.32 ± 0.11 ^j μM
FRAP [5, 11]: 406.39 ± 4.65 ^d mg TE/g
